# According to US6559101B2, “N- (5, 7-dimethoxy [1, 2, 4] triazolo [1, 5-a] pyrimidin-2-yl) arylsulfonamide compounds and their use as herbicides” (Dow AgroSciences LLC, priority 2000, dated 2003):
# What was measured:
# [1] = system: Spring wheat (Triticum aestivum); assay: Postemergence herbicidal activity with safener, crop injury; assay type: in vivo; conditions: 25 g/ha postemergence; 3 weeks after application; 0 no injury, 100 complete kill
# From the text: (§1) Pre-formulated test materials utilized were as follows: Compound 15 as a 30 g ai/L emulsified concentrate (3% Compound 15, 3% Agrimer AL-10 (copolymer of 1-ethenyl-2-pyrolidinone and 1-butene), 94% N-methyl pyrrolidone w/w) and cloquintocet-mexyl (CQC) as a 120 g ai/L emulsified concentrate (12% cloquintocet-mexyl, 2.5% Toximul D, 2.5% Toximul H, [blends of calcium dodecylbenzenesulfonate plus castor oil ehtoxylates, nonylphenol ethoxylates and EO-PO block copolymers] 83% aromatic 200 w/w). Diluted stock solutions of formulated materials were made in distilled water. Final spray solutions were made by adding specified aliquots of diluted stock materials to a solution containing distilled water and X-77 surfactant at 0.25% v/v. The solutions were applied using a mechanized track-sprayer calibrated to deliver 187 1/ha carrier volume with a nozzle (flat fan) pressure of 276 kilopascals.
# (§2) Assessment of weed control and crop injury was taken a 3 weeks after application. Plant injury was visually assessed on a scale of 0 to 100% with 0 equal to no injury and 100 equal to complete kill.
# [2] = system: blackgrass (Alopecurus myosuroides); assay: Preemergence herbicidal activity; assay type: in vivo; conditions: 17.5 g/Ha; scored after 3 weeks; 0 no injury, 100 complete kill or no germination
# In short: (§3)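 Ratings are percent injury assessed visually three weeks after treatment, comparing emerged treated plants with untreated ones; 0 indicates no effect and 100 indicates plants killed or not germinated. Compound was sprayed on the soil of seeded pots at up to 4.48 kg/ha.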
# [3] = system: cocklebur (Xanthium strumarium); assay: Preemergence herbicidal activity; assay type: in vivo; conditions: 17.5 g/Ha; scored after 3 weeks; 0 no injury, 100 complete kill or no germination
# In short: as §3
# [4] = system: velvetleaf (Abutilion theophrasti); assay: Preemergence herbicidal activity; assay type: in vivo; conditions: 17.5 g/Ha; scored after 3 weeks; 0 no injury, 100 complete kill or no germination
# In short: as §3
# [5] = system: pigweed (Amaranthus retroflexus); assay: Preemergence herbicidal activity; assay type: in vivo; conditions: 17.5 g/Ha; scored after 3 weeks; 0 no injury, 100 complete kill or no germination
# In short: as §3
# [6] = system: morningglory (Ipomoea hederacea); assay: Preemergence herbicidal activity; assay type: in vivo; conditions: 17.5 g/Ha; scored after 3 weeks; 0 no injury, 100 complete kill or no germination
# In short: as §3
# [7] = system: barnyardgrass (Echinochloa crus-galli); assay: Preemergence herbicidal activity; assay type: in vivo; conditions: 17.5 g/Ha; scored after 3 weeks; 0 no injury, 100 complete kill or no germination
# In short: as §3
# [8] = system: giant foxtail (Setaria faberi); assay: Preemergence herbicidal activity; assay type: in vivo; conditions: 17.5 g/Ha; scored after 3 weeks; 0 no injury, 100 complete kill or no germination
# In short: as §3
# [9] = system: Rox orange sorghum (Sorghum bicolor); assay: Preemergence herbicidal activity; assay type: in vivo; conditions: 17.5 g/Ha; scored after 3 weeks; 0 no injury, 100 complete kill or no germination
# In short: as §3
# wild oats (Avena fatua) [10] = assay: Preemergence herbicidal activity; assay type: in vivo; conditions: 17.5 g/Ha; scored after 3 weeks; 0 no injury, 100 complete kill or no germination
# In short: as §3
# [11] = system: lambsquarters (Chenopodium album); assay: Preemergence herbicidal activity; assay type: in vivo; conditions: 17.5 g/Ha; scored after 3 weeks; 0 no injury, 100 complete kill or no germination
# In short: as §3
# [12] = system: crabgrass (Digitaria sanguinalis); assay: Preemergence herbicidal activity; assay type: in vivo; conditions: 17.5 g/Ha; scored after 3 weeks; 0 no injury, 100 complete kill or no germination
# In short: as §3
# [13] = system: wild poinsettia (Euphorbia heterophylla); assay: Preemergence herbicidal activity; assay type: in vivo; conditions: 17.5 g/Ha; scored after 3 weeks; 0 no injury, 100 complete kill or no germination
# In short: as §3
# [14] = system: blackgrass (Alopecurus myosuroides); assay: Postemergence herbicidal activity; assay type: in vivo; conditions: 7.8 ppm; scored after 2 weeks; 0 no injury, 100 complete kill
# In short: (§4)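 Visual injury rating (0 = no injury, 100% = complete kill) taken 2 weeks post-application relative to untreated controls. Compounds applied as foliar spray in an acetone/DMSO-based aqueous carrier with crop oil and surfactant to plants at first or second true leaf stage; 1 ppm corresponds to about 1 g/ha.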
# viola (Viola tricolor) = assay: Postemergence herbicidal activity; assay type: in vivo; conditions: 7.8 ppm; scored after 2 weeks; 0 no injury, 100 complete kill
# In short: as §4
# [15] = system: wild buckwheat (Polygonum convolvulus); assay: Postemergence herbicidal activity; assay type: in vivo; conditions: 7.8 ppm; scored after 2 weeks; 0 no injury, 100 complete kill
# In short: as §4
# [16] = system: cocklebur (Xanthium strumarium); assay: Postemergence herbicidal activity; assay type: in vivo; conditions: 7.8 ppm; scored after 2 weeks; 0 no injury, 100 complete kill
# In short: as §4
# [17] = system: velvetleaf (Abutilion theophrasti); assay: Postemergence herbicidal activity; assay type: in vivo; conditions: 7.8 ppm; scored after 2 weeks; 0 no injury, 100 complete kill
# In short: as §4
# [18] = system: pigweed (Amaranthus retroflexus); assay: Postemergence herbicidal activity; assay type: in vivo; conditions: 7.8 ppm; scored after 2 weeks; 0 no injury, 100 complete kill
# In short: as §4
# [19] = system: giant foxtail (Setaria faberi); assay: Postemergence herbicidal activity; assay type: in vivo; conditions: 7.8 ppm; scored after 2 weeks; 0 no injury, 100 complete kill
# In short: as §4
# [20] = system: Rox orange sorghum (Sorghum bicolor); assay: Postemergence herbicidal activity; assay type: in vivo; conditions: 7.8 ppm; scored after 2 weeks; 0 no injury, 100 complete kill
# In short: as §4
# wild oats (Avena fatua) [21] = assay: Postemergence herbicidal activity; assay type: in vivo; conditions: 7.8 ppm; scored after 2 weeks; 0 no injury, 100 complete kill
# In short: as §4
# [22] = system: lambsquarters (Chenopodium album); assay: Postemergence herbicidal activity; assay type: in vivo; conditions: 7.8 ppm; scored after 2 weeks; 0 no injury, 100 complete kill
# In short: as §4
# [23] = system: chickweed (Stellaria media); assay: Postemergence herbicidal activity; assay type: in vivo; conditions: 7.8 ppm; scored after 2 weeks; 0 no injury, 100 complete kill
# In short: as §4
# [24] = system: blackgrass (Alopecurus myosuroides); assay: Postemergence herbicidal activity with safener; assay type: in vivo; conditions: 25 g/ha postemergence; 0 no injury, 100 complete kill
# From the text: as §1, §2
# [25] = system: Windgrass (Apera spica-venta); assay: Postemergence herbicidal activity with safener; assay type: in vivo; conditions: 25 g/ha postemergence; 0 no injury, 100 complete kill
# From the text: as §1, §2
# [26] = system: Green foxtail (Setaria viridis); assay: Postemergence herbicidal activity with safener; assay type: in vivo; conditions: 25 g/ha postemergence; 0 no injury, 100 complete kill
# From the text: as §1, §2
# Wild oat (Avena fatua) = assay: Postemergence herbicidal activity with safener; assay type: in vivo; conditions: 25 g/ha postemergence; 0 no injury, 100 complete kill
# From the text: as §1, §2
# [27] = system: Italian ryegrass (Lolium multiflorum); assay: Postemergence herbicidal activity with safener; assay type: in vivo; conditions: 25 g/ha postemergence; 0 no injury, 100 complete kill
# From the text: as §1, §2
# [28] = system: morningglory (Ipomoea hederacea); assay: Postemergence herbicidal activity; assay type: in vivo; conditions: 7.8 ppm; scored after 2 weeks; 0 no injury, 100 complete kill
# In short: as §4
SMILES,Preemergence herbicidal activity ALOMY [2],Preemergence herbicidal activity XANST [3],Preemergence herbicidal activity ABUTH [4],Preemergence herbicidal activity AMARE [5],Preemergence herbicidal activity IPOHE [6],Preemergence herbicidal activity ECHCG [7],Preemergence herbicidal activity SETFA [8],Preemergence herbicidal activity SORBI [9],Preemergence herbicidal activity AVEFA (wild oats (Avena fatua) [10]),Preemergence herbicidal activity CHEAL [11],Preemergence herbicidal activity DIGSA [12],Preemergence herbicidal activity EPHHL [13],Postemergence herbicidal activity ALOMY [14],Postemergence herbicidal activity VIOTR (viola (Viola tricolor)),Postemergence herbicidal activity POLCO [15],Postemergence herbicidal activity XANST [16],Postemergence herbicidal activity ABUTH [17],Postemergence herbicidal activity AMARE [18],Postemergence herbicidal activity SETFA [19],Postemergence herbicidal activity SORBI [20],also measured
"COc1cc(OC)n2nc(NS(=O)(=O)c3c(C(F)(F)F)ccnc3OC)nc2n1 [Compound 15, N-(5,7-dimethoxy[1,2,4]triazolo[1,5-a]pyrimidin-2-yl)-2-methoxy-4-(trifluoromethyl)-3-pyridinesulfonamide]",100%,95%,95%,70%,95%,98%,100%,100%,98%,100%,98%,98%,99%,95%,98%,90%,95%,98%,100%,98%,% Injury TRZAS [1]: 47%; Postemergence herbicidal activity AVEFA (wild oats (Avena fatua) [21]): 98%; Postemergence herbicidal activity CHEAL [22]: 95%; Postemergence herbicidal activity STEME [23]: 98%; % Control 3 Weeks After Application ALOMY [24]: 99%; % Control 3 Weeks After Application APSEV [25]: 100%; % Control 3 Weeks After Application SETVI [26]: 99%; % Control 3 Weeks After Application AVEFA (Wild oat (Avena fatua)): 99%; % Control 3 Weeks After Application LOLMU [27]: 99%
"COc1cc(OC)n2nc(NS(=O)(=O)c3c(Cl)cccc3Cl)nc2n1 [Compound 1, N-(5,7-dimethoxy[1,2,4]triazolo-[1,5-a]pyrimidin-2-yl)-2,6-dichlorobenzene-sulfonamide]",100%,100%,99%,100%,80%,98%,95%,98%,100%,98%,98%,70%,90%,75%,95%,85%,85%,90%,98%,90%,melting point: 211 to 213 °C; Postemergence herbicidal activity IPOHE [28]: 80%; Postemergence herbicidal activity AVEFA (wild oats (Avena fatua) [21]): 95%; Postemergence herbicidal activity CHEAL [22]: 90%; Postemergence herbicidal activity STEME [23]: 95%
